Counter-ions that a name gives are not always drawn.
What was measured:
[1] = adjuvant-induced arthritis assay in rats; format: in vivo, female Wistar-Lewis rats; settings: for Percent Inhibition Swelling, Injected Paw / Percent Inhibition Swelling, Uninjected Paw: day 16; for Percent Inhibition of Swelling, Injected Paw / Percent Inhibition of Swelling, Uninjected Paw: Table 2; for Inhibition of Swelling, Mean Difference, Injected Paw / Inhibition of Swelling, Mean Difference, Uninjected Paw: Table 3; for inhibiting induced arthritis, drug alone: at the dose levels used in combination
[2] = weight loss / deaths as a measure of toxicity in the adjuvant arthritis experiments
Method: Similar experiments were carried out with vinblastine-fenoprofen combinations and a vinblastine-indomethacin combination, again using adjuvant arthritis as a model. In this first determination, vinblastine was, as before, given on the 10th day, but fenoprofen, as the calcium salt, was given both from day 0 through day 15 and from day 10 through day 15. Controls utilizing each drug alone were employed as well as a saline control. […] In the vinblastine-indomethacin experiment, vinblastine was given on day 11 and indomethacin daily from days 11 to day 16.

[3] = mice; cited from earlier work
[4] = antiarthritic activity relative to vinblastine, parenteral; format: in vivo; settings: parenteral administration
[5] = pigeons or chickens, intertarsal joint; cited from earlier work
[6] = dogs pretreated with vinblastine; cited from earlier work
[7] = intravenous; pleural cavity; cited from earlier work
twine granuloma assay = format: in vivo; settings: female rats
Source text: Vinblastine is also active in other assays designed to detect anti-arthritic activity as, for example, the twine granuloma assay in female rats.

[8] = Table 1 Section A, 3 mg/kg, given on 10th day
[9] = Table 1 Section A, 6 mg/kg, given on 10th day
[10] = Table 1 Section A, 9 mg/kg, given on 10th day
[11] = Table 1 Section A, 9 mg/kg, given on 10th day, * decrease from previous value
[12] = Table 1 Section A, 12 mg/kg, given on 10th day, * decrease from previous value
[13] = Table 1 Section B, vinblastine sulfate 6 mg/kg, 10th day
[14] = vinblastine sulfate 3 mg/kg, day 10, p = 1
[15] = Table 2, vinblastine sulfate 3 mg/kg day 10
[16] = Table 1 Section B, fenoprofen 5 mg/kg, days 10-15

## CC[C@]1(O)C[C@@H]2CN(CCc3c([nH]c4ccccc34)[C@@](C(=O)OC)(c3cc4c(cc3OC)N(C)[C@H]3[C@@](O)(C(=O)OC)[C@H](OC(C)=O)[C@]5(CC)C=CCN6CC[C@]43[C@@H]65)C2)C1 [Vinblastine sulfate]
[1]; [8]
  Average Increase in Swelling, Injected Paw, Day 0-10: 0.554
  Average Increase in Swelling, Injected Paw, Day 10-16: 0.722
  Average Increase in Swelling, Uninjected Paw, Day 0-10: 0.024
  Average Increase in Swelling, Uninjected Paw, Day 10-16: 0.574
[1]; Table 1 Section A, 3 mg/kg, given on 10th day, p = 0.097
  Percent Inhibition Swelling, Injected Paw: 38.55%
[1]; Table 1 Section A, 3 mg/kg, given on 10th day, p = 0.987
  Percent Inhibition Swelling, Uninjected Paw: 0%
[1]; [9]
  Average Increase in Swelling, Injected Paw, Day 0-10: 0.498
  Average Increase in Swelling, Injected Paw, Day 10-16: 0.188
  Average Increase in Swelling, Uninjected Paw, Day 0-10: 0.038
[1]; Table 1 Section A, 6 mg/kg, given on 10th day, p = 0.001
  Percent Inhibition Swelling, Injected Paw: 84.00%
[1]; Table 1 Section A, 6 mg/kg, given on 10th day, p = 0.077
  Percent Inhibition Swelling, Uninjected Paw: 74.39%
[1]; [10]
  Average Increase in Swelling, Injected Paw, Day 0-10: 0.492
  Average Increase in Swelling, Uninjected Paw, Day 0-10: 0.230
[1]; [11]
  Average Increase in Swelling, Injected Paw, Day 10-16: -0.096
  Average Increase in Swelling, Uninjected Paw, Day 10-16: -0.232
[1]; Table 1 Section A, 9 mg/kg, given on 10th day, p = 0.000
  Percent Inhibition Swelling, Injected Paw: 100.0%
[1]; Table 1 Section A, 9 mg/kg, given on 10th day, p = 0.004
  Percent Inhibition Swelling, Uninjected Paw: 100.00%
[1]; Table 1 Section A, 12 mg/kg, given on 10th day
  Average Increase in Swelling, Injected Paw, Day 0-10: 0.698
[1]; [12]
  Average Increase in Swelling, Injected Paw, Day 10-16: -0.108
  Average Increase in Swelling, Uninjected Paw, Day 0-10: -0.102
  Average Increase in Swelling, Uninjected Paw, Day 10-16: -0.048
[1]; Table 1 Section A, 12 mg/kg, given on 10th day, p = 0.000
  Percent Inhibition Swelling, Injected Paw: 100.00%
[1]; Table 1 Section A, 12 mg/kg, given on 10th day, p = 0.027
  Percent Inhibition Swelling, Uninjected Paw: 100.00%
[1]; [13]
  Average Increase in Swelling, Injected Paw, Day 0-10: 0.498
  Average Increase in Swelling, Injected Paw, Day 10-16: 0.188
  Average Increase in Swelling, Uninjected Paw, Day 0-10: 0.030
[1]; Table 1 Section B, vinblastine sulfate 6 mg/kg, 10th day, p = 0.001
  Percent Inhibition Swelling, Injected Paw: 84.00%
[1]; Table 1 Section B, vinblastine sulfate 6 mg/kg, 10th day, p = 0.077
  Percent Inhibition Swelling, Uninjected Paw: 74.39%
[1]; vinblastine sulfate 3 mg/kg day 10, p = 0.724
  Percent Inhibition of Swelling, Injected Paw: 8.22%
[1]; vinblastine sulfate 3 mg/kg day 10, p = 0.764
  Percent Inhibition of Swelling, Uninjected Paw: 12.0%
[1]; [14]
  Inhibition of Swelling, Mean Difference, Injected Paw: 1.00
  Inhibition of Swelling, Mean Difference, Uninjected Paw: 0.41
[1]
  inhibiting induced arthritis, drug alone: neither drug alone is effective
[2]; [15]
  Wt. Loss, Day 0-16: -22.3 grams
  Wt. Loss, Day 10-16: -22.6 grams
[2]; Table 3, vinblastine sulfate 3 mg/kg, day 10
  Wt. Loss, Day 10-17: 28.9 grams

## CC(C(=O)O)c1cccc(Oc2ccccc2)c1 (racemic) [Fenoprofen (Ca salt), dl-α-methyl-3-phenoxybenzeneacetic acid]
[1]; [16]
  Average Increase in Swelling, Injected Paw, Day 0-10: 0.502
  Average Increase in Swelling, Injected Paw, Day 10-16: 0.692
  Average Increase in Swelling, Uninjected Paw, Day 0-10: 0.188
  Average Increase in Swelling, Uninjected Paw, Day 10-16: 0.274
[1]; Table 1 Section B, fenoprofen 5 mg/kg, days 10-15, p = 0.074
  Percent Inhibition Swelling, Injected Paw: 41.11%
[1]; Table 1 Section B, fenoprofen 5 mg/kg, days 10-15, p = 0.282
  Percent Inhibition Swelling, Uninjected Paw: 51.93%
[1]; fenoprofen Ca salt 2.5 mg/kg days 0-15, p = 0.196
  Percent Inhibition of Swelling, Injected Paw: 34.9%
[1]; fenoprofen Ca salt 2.5 mg/kg days 0-15, p = 0.645
  Percent Inhibition of Swelling, Uninjected Paw: 17.4%
[1]; fenoprofen Ca salt 5 mg/kg days 10-15, p = 0.385
  Percent Inhibition of Swelling, Uninjected Paw: 27.2%
[1]; fenoprofen Ca salt 5 mg/kg days 10-15, p = 0.58
  Percent Inhibition of Swelling, Injected Paw: 40.3%
[1]
  inhibiting induced arthritis, drug alone: neither drug alone is effective
[2]; Table 2 footnote, 2.5 mg/kg days 0-15, at day 16
  death: one death

## CC[C@]1(O)C[C@H]2CN(CCc3c([nH]c4ccccc34)[C@@](C(=O)OC)(c3cc4c(cc3OC)N(C=O)[C@H]3[C@@](O)(C(=O)OC)[C@H](OC(C)=O)[C@]5(CC)C=CCN6CC[C@]43[C@@H]65)C2)C1 [vincristine]
[3]
  depression of paw swelling: significant depression of paw swelling
[4]
  antiarthritic activity relative to VLB: about 10 times more active
[5]
  inhibition of the arthritic response: no inhibition of the arthritic response

## CC[C@]1(O)C[C@@H]2CN(CCc3c([nH]c4ccccc34)[C@@](C(=O)OC)(c3cc4c(cc3OC)N(C)[C@H]3[C@@](O)(C(=O)OC)[C@H](OC(C)=O)[C@]5(CC)C=CCN6CC[C@]43[C@@H]65)C2)C1 [Vinblastine]
[6]
  inflammatory response: almost completely abolished
  leukocyte depletion: profound leukocyte depletion
  significant phagocyte accumulation: prevented
[7]
  effect on inflammation: may have a suppressive effect
Twine granuloma assay
  activity in twine granuloma assay: active
[3]
  depression of paw swelling: significant depression of paw swelling
[5]
  inhibition of the arthritic response: no inhibition of the arthritic response
[1]; summary statement
  activity in the adjuvant arthritis assay: active in the adjuvant arthritis assay

## COc1ccc2c(c1)c(CC(=O)O)c(C)n2C(=O)c1ccc(Cl)cc1 [Indomethacin]
[1]; indomethacin 0.25 mg/kg, p = 0.11
  Inhibition of Swelling, Mean Difference, Injected Paw: 0.59
[1]; indomethacin 0.25 mg/kg, p = 1
  Inhibition of Swelling, Mean Difference, Uninjected Paw: 0.56
[1]
  inhibiting induced arthritis, drug alone: neither drug alone is effective
